Tests used:
[1] = tested on: HEK-CMV-Luc2-Hygro cells; experiment: Effect of exogenous polyamines on luciferase expression and cell growth; conditions: for effect of higher concentrations on luciferase expression and viable cell: concentrations above the optimum; for concentration with inhibitory effects: culture medium with ruminant serum
Method: FIG. 13: Effect of exogenous polyamines on luciferase expression and cell growth. Two different passages of cells were treated with the indicated concentrations of polyamines and each biological sample was measured in triplicates. Error bars represent SEM.
To further verify this, the impacts of exogenously added polyamines on luciferase expression level and viable cell number were determined.

[2] = tested on: T-REx-293-NTSR1-GFP cells; experiment: High-throughput human miRNA mimic library screen, image-based per cell green fluorescence (NTSR1-GFP expression); conditions: per cell green fluorescence intensity; for MAD-based z-score: 72 h after transfection plus 24 h tetracycline induction
Method: T-REx-293-NTSR1-GFP cells were screened with a miRNA mimic library (Qiagen) based on Sanger miRBase™ 13.0 and consisting of 875 miRNAs mimics. For transfection, 0.8 pmol of each mimic was spotted to 384 well plate wells (Corning) and 20 μL of serum-free DMEM containing 0.1 μL of Lipofectamine™ RNAiMax (Life Technologies) was then added to each well. This lipid-miRNA mixture was incubated at ambient temperature for 30 min prior to adding 2000 cells in 20 μL of DMEM containing 20% certified FBS (Gibco). Transfected cells were incubated at 37° C. in 5% CO2 for 72 hours and induced with 1 μg/mL tetracycline for 24 hours for NTSR1-GFP expression. Cells were then fixed with 2% paraformaldehyde (Electron Microscopy Sciences), stained with Hoechst™ 33342 (Life Technologies) for 45 minutes and gently washed with PBS. Plates were imaged with an ImageXpress Micro XL™ (Molecular Devices). Total cell number and per cell green fluorescence intensity were calculated using MetaXpress™ software (Molecular Devices) employing the Multi-Wavelength Cell Scoring™ application module. […] A full column of positive control siRNA targeting GFP (GFP-22 siRNA, Qiagen) was also used as on-plate reference for transfection efficiency. The median absolute deviation (MAD)-based z-score was calculated for each sample.

[3] = tested on: HEK-GPC3-hFc cell line; experiment: Validation of miRNAs with GPC3-hFc-expressing cells (ELISA and cell count); format: cell-based, human; conditions: 40 nM miRNA, 6 days after transfection, versus siN.C.
Method: HEK-GPC3-hFc cell line constitutively secreting glypican-3 hFc-fusion protein (GPC3-hFc) was a gift from the National Cancer Institute of the NIH. Cells were grown in DMEM supplemented with 10% FBS in a humidified incubator set at 37° C. and 5% CO2.
Cells were transfected in 12-well plates as described above in the screening method with the following modification: 0.15 million cells were transfected with 40 nM miRNA using 6.25 ul Lipofectamine™ RNAiMax in a total volume of 1 mL of media. 6 days after transfection, cell culture supernatant was collected and cleared using centrifuge for GPC3-hFc concentration determination with ELISA and cells were detached and counted by trypan blue exclusion using a CEDEX™ cell quantification system (Roche, Mannheim, Germany). Per cell GPC3-hFc production can be calculated from overall GPC3-hFc yield and viable cell number.
AffiniPure™ F(ab′)2 Fragment Goat Anti-Human IgG (min X Bov, Ms, Rb Sr Prot, Cat. 109-006-170, Jackson Immunology) was used to coat a 96-well plate at 5 μg/mL in PBS buffer, 50 μL per well, at 4° C. overnight. After the plate was blocked with 2% BSA in PBS buffer, pre-diluted cell culture supernatant was added, and the plate was incubated at room temperature for one hour to allow binding to occur. After the plate was washed twice with PBS containing 0.05% Tween 20, Peroxidase-conjugated AffiniPure™ Goat-anti-uman IgG (Cat. 109-035-098, Jackson Immunology) was added at 1:4000 dilutions, 50 ul/well. Following incubating at room temperature for one hour, the plate was washed 4 times and detected with Peroxidase Substrate System (KPL).

[4] = tested on: CMV-Luc2-HygroHEK293 cell line; experiment: Validation of miRNAs with luciferase-expressing cells (ONE-Glo / CellTiter-Glo, 12-well); format: cell-based, human; conditions: 40 nM miRNA, 72 h; for improvement of luciferase expression (per cell luciferase activity): 12-well, versus siN.C.
Method: CMV-Luc2-HygroHEK293 cell line constitutively expressing luciferase is purchased from Promega. Validation transfections were performed in 12-well plates with miScript miRNA mimics (Qiagen, Cat. No. 219600-S0), SilencerSelect™ Negative Control #2 and lethal control siRNA (Qiagen AllStars Cell Death Control™) served as a control for transfection efficiency. Cells were transfected in duplicates as described above in the screening method with the following modification: 0.1 million cells were transfected with 40 nM miRNA using 6.25 ul Lipofectamine™ RNAiMax in a total volume of 1 mL of media. 72 hours after transfection, 500 μL of ONE-Glo™ Reagent (Promega) was added to one set of replicates for luciferase activity quantification and 500 μL of CellTiter-Glo™ Reagent (Promega) was added to the second set of replicates for viable cell density measurement. All plates were incubated at room temperature for 20 minutes to stabilize luminescent signal and then measured with SpectraMax i3™ plate reader (Molecular Devices). Per cell luciferase production was calculated from overall luciferase activity and viable cell number.

[5] = tested on: NTSR1; experiment: [3H]NT binding assay on detergent-solubilized cells for functional expression of NTSR1; format: cell-based; conditions: [3H]NT binding
Method: Validation transfections were performed in 12-well plates with miScript™ miRNA mimics (Qiagen, Cat. No. 219600-S0), SilencerSelect™ Negative Control #2 and lethal control siRNA (Qiagen AllStars Cell Death Control™) served as a control for transfection efficiency. Cells were transfected as described for screening except 0.15 million cells were transfected with 40 nM miRNA using 6.25 ul Lipofectamine™ RNAiMax in a total volume of 1 mL of media. 72 hours after transfection, cells were induced with 1 μg/mL tetracycline. 24 hours later, cells from each well were detached with non-enzymatic cell dissociation buffer (Gibco, Cat. No. 13150-016) and washed twice with cold PBS. Cell densities and viability were determined by trypan blue exclusion using a CEDEX™ cell quantification system (Roche, Mannheim, Germany). Based on the counts, cell densities were adjusted to 0.5 million cells/ml with PBS and then subject to flow cytometry analysis. The remaining cells were pelleted and frozen on dry ice for [^3H]NT binding assays.
The detergents n-Dodecyl-β-D-maltoside (LM), 3-[(3-cholamidopyropyl) dimethylammonio]-1-propane sulfonate (CHAPS) and cholesteryl hemisuccinate Tris salt (CHS) were obtained from Anatrace. Cell pellets from 2 mL of suspension culture were suspended in Tris-glycerol-NaCl buffer. Then the detergents LM, CHAPS and CHS were added to give a final buffer composition of 50 mM TrisHCl pH 7.4, 200 mM NaCl, 30% (v/v) glycerol, 1% (w/v) LM, and 0.6% (w/v) CHAPS and 0.12% (w/v) CHS in a total volume of 0.5 mL. The samples were placed on a rotating mixer at 4° C. for 1 hour. Cell debris and non-solubilized material were removed by ultracentrifugation (TL100 rotor, 60 k rpm, 4° C., 30 min in Optima Max™ bench-top ultracentrifuge, Beckman), and the supernatants containing detergent-solubilized NTSR1 were used to determine the total number of expressed receptors by a detergent-based radio-ligand binding assay (see below).
Tritiated neurotensin agonist [^3H]NT ([3,11-tyrosyl-3,5-^3H(N)]-pyro[…] SEQ ID NO:27) was purchased from Perkin Elmer. Ligand-binding assays with detergent-solubilized receptors were carried out in TEBB assay buffer (50 mM Tris pH 7.4, 1 mM EDTA, 40 μg/mL bacitracin, 0.1% BSA) containing 0.1% (w/v) LM, 0.2% (w/v) CHAPS and 0.04% (w/v) CHS. For one-point assays, receptors were incubated with 2 nM [^3H]NT on ice for 1 hour in a volume of 150 μL. The concentration of [^3H]NT used was at least 5-fold above the apparent dissociation constants for detergent-solubilized NTSR1 to allow high receptor occupancy. Separation of the receptor-ligand complex from free ligand (100 μL) was achieved by centrifugation-assisted gel filtration using Bio-Spin™ 30 Tris columns (BioRad), equilibrated with RDB buffer (50 mM Tris-HCl, pH 7.4, 1 mM EDTA, 0.1% (w/v) LM, 0.2% (w/v) CHAPS, 0.04% (w/v) CHS). Non-specific [^3H]NT binding of 220 dpm was subtracted from total binding to calculate the total amount of receptors in T-REx-293-NTSR1-GFP cells. The number of functional NTSR1 was estimated by specific [^3H]NT binding assuming one ligand-binding site per receptor molecule. The number of cells in the assay was derived by cell counting at cell harvest. This approach led to the calculation of the parameter “receptors/cell”.

Row | Molecule | Signal relative to negative control (%) [2] | MAD-based z-score [2] | improvement of functional expression of NTSR1 compared with siN.C. [5] | also measured
1 | NCCCCN [putrescine] |  |  |  | increase of luciferase expression ([1]; added to medium at 100 μM): up to 40%; enhanced growth ([1]; addition at 50 μM): 10%; effect of higher concentrations on luciferase expression and viable cell [1]: did not lead to further enhancement of luciferase production
2 | NCCCCNCCCN [spermidine] |  |  |  | increase in cell growth ([1]; at 10 μM): 24%; increase in luciferase expression ([1]; at 20 μM): 36%; concentration with inhibitory effects [1]: > 100 µM
3 | NCCCNCCCCNCCCN [spermine] |  |  |  | increase in luciferase expression ([1]; at 10 μM): 16%; effect of higher concentrations on luciferase expression and viable cell [1]: caused reduction in both luciferase expression and viable cell; concentration with inhibitory effects [1]: > 20 µM
4 | AAGCUGCCAGUUGAAGAACUGU (listed as RNA, chemistry not given here; listed as Homo sapiens) [miR-22-3p, human miRNA mimic] | 158% | 2.3 |  | change of overall GPC3-hFc production [3]: effectively enhanced overall GPC3-hFc; improvement of per cell GPC3-hFc secretion [3]: enhanced per cell GPC3-hFc secretion; cell growth (viable cell density) [4]: inhibited cell growth; overall production of luciferase higher than negative control siN.C. [4]: 127%
5 | ACCUGGCAUACAAUGUAGAUUU (listed as RNA, chemistry not given here; listed as Homo sapiens) [miR-221-5p, human miRNA mimic] | 248% | 5.3 | not associated with enhanced binding activity | 
6 | AGUUCUUCAGUGGCAAGCUUUA (listed as RNA, chemistry not given here; listed as Homo sapiens) [miR-22-5p, human miRNA mimic] | 215% | 4.0 |  | change of overall GPC3-hFc production [3]: effectively enhanced overall GPC3-hFc; improvement of per cell GPC3-hFc secretion [3]: enhanced per cell GPC3-hFc secretion; improvement of luciferase expression (per cell luciferase activity) [4]: relevant for improving luciferase expression
7 | AUCGCUGCGGUUGCGAGCGCUGU (listed as RNA, chemistry not given here; listed as Homo sapiens) [miR-639, human miRNA mimic] | 165% | 2.4 | not associated with enhanced binding activity | 
8 | CACUGGCUCCUUUCUGGGUAGA (listed as RNA, chemistry not given here; listed as Homo sapiens) [miR-892b, human miRNA mimic] | 201% | 3.7 | not associated with enhanced binding activity | cell growth (viable cell density) [4]: inhibited cell growth; overall production of luciferase higher than negative control siN.C. [4]: 188%; improvement of luciferase expression (per cell luciferase activity) [4]: 239%
9 | CUUUUUGCGGUCUGGGCUUGC (listed as RNA, chemistry not given here; listed as Homo sapiens) [miR-129-5p, human miRNA mimic] | 172% | 2.7 | not associated with enhanced binding activity | 
10 | UGAGUGCCGGUGCCUGCCCUG (listed as RNA, chemistry not given here; listed as Homo sapiens) [miR-1909-5p, human miRNA mimic] | 169% | 2.6 |  | 
11 | UGGUUGUAGUCCGUGCGAGAAUA (listed as RNA, chemistry not given here; listed as Homo sapiens) [miR-1974, human miRNA mimic] | 201% | 3.6 |  | 

— patent publication US20160319277A1, “METHODS OF IMPROVED PROTEIN PRODUCTION USING MIRNAs AND SIRNAs” (THE JOHNS HOPKINS UNIVERSITY, priority 2015, published 2016)
